Test results taken from patent US7696201B2, “Modulators of muscarinic receptors” (Vertex Pharmaceuticals Incorporated, priority 2006, dated 2010).

Assays:
Assay type in all cases: cell-based
[1] = biological target: T1, M1 muscarinic receptor (Homo sapiens, UniProt P11229); test: Functional mobilization of intracellular calcium (FLIPR), M1-CHO cells; conditions: for Emax: 100% efficacy is the maximum response obtained with the Carbachol control; for M1 Activity: CHO cells expressing M1, calcium mobilization
T1 construct: expressed in transfected cells; host or cells: CHO (M1-CHO)
T1 sequence (P11229 1-460): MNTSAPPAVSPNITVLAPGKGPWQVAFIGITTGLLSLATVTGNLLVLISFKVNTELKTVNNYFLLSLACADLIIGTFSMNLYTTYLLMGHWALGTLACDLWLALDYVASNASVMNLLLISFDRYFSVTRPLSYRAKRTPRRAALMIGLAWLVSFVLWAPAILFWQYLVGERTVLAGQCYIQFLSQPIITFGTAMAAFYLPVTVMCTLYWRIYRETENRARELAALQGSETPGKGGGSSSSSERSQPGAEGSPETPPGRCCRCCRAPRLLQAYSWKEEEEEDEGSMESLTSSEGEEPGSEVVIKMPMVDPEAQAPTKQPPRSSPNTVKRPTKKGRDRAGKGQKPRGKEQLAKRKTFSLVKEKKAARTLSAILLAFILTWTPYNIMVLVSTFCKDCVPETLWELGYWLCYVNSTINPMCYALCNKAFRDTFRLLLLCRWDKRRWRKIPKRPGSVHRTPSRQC
Description: (§1) Functional Mobilization of Intracellular Calcium to Determine Muscarinic Receptor Activity:
(§2) CHO cells expressing muscarinic receptors (M1 to M5) are grown as monolayers in tissue culture flasks at 37° C. in a humidified atmosphere containing 5% CO2 and passaged every 3-5 days. The growth media is Dulbecco's modified eagles medium (DMEM, Gibco Cat# 12430-054), containing 25 mM Hepes and supplemented with Fetal Bovine Serum (Hyclone, cat# SH30071.03), 0.1 mM of MEM non-essential amino acids (GIBCO, Cat# 11140-050), 1 mM MEM Sodium Pyruvate (GIBCO Cat# 11360-070) and 100 units/ml of Penicillin G and 100 μg/ml of Streptomycin (GIBCO Cat# 15140-122). The recombinant muscarinic receptor cell lines are grown under antibiotic pressure with media containing 25 μg/ml zeocin and 500 μg/ml G418 (M1-CHO), 4 μg/ml puromycin, 50 μg/ml zeocin and 2.5 μg/ml blasticidin (M2 and M4-CHO) or 50 μg/ml zeocin and 4 μg/ml puromycin (M3 and M5-CHO).
(§3) Cells are harvested at 80-90% confluence using Versene (GIBCO Cat# 15040-066), collected by centrifugation and seeded 18-24 hours prior to running the calcium assay at a density of 5,000-10,000 cells/well in […], clear-bottomed 384-well plates (BD Biocoat, poly-D-lysine, Cat#356663). The day of the experiment, the cells are washed with a plate washer (Bioteck Instruments, ELX 405) using Bath 1 buffer (140-mM NaCl, 4.5-mM KCl, 2-mM CaCl2, 1-mM MgCl2, 10-mM Hepes-Na, 10-mM Glucose, pH 7.4, with NaOH) containing 1 mM Probenecid. Next, the calcium dye Fluo-3 (25 μl/well of Fluo-3 AM at 4 μM, Molecular Probes F-1241, in Bath 1 buffer containing 1 mM Probenecid) is added to the 25 μl of Bath 1 remaining in each well after the plate wash and the dye is loaded at 37° C. in the tissue culture incubator for 60-90 min. The fluorescent dye is removed using the plate washer with Bath 1 containing 1 mM Probenecid, leaving 25 μl/well of this solution after the wash. Alternatively, cells can be loaded with the calcium indicator from Molecular Devices (Calcium 3 Assay Reagents, Cat # R7181) adding 5 μl of a 5× solution dye in Bath 1 containing 1 mM Probenecid (10 ml per dye flask cat# R7182 to generate a solution 20×) to 20 μl of the same buffer. After loading for 60 min, the experiment can be run without having to remove the dye.
(§4) Compounds are prepared at a 2× fold concentration in a 96-well plate (round bottom, Costar Corning cat# 3656), by reconstituting the pre-spotted compounds in bath 1 containing 1 mM probenecid. The final concentration DMSO is 0.5%, and the amount of DMSO is normalized across the assay plate. To determine an agonist action of the compounds on muscarinic receptors, the reconstituted compounds are added (25 μl compound/well) to the cell assay plate (containing 25 μl/well) using the multi-channel robotic system of the FLIPR 3 Instrument (Molecular Devices, Sunnyvale, Calif.). To determine a functional inhibitory action of the compounds on muscarinic receptors, the reconstituted compounds are added (25 μl compound/well) to the assay plate and pre-incubated for 15 min prior to adding 25 μl of Carbachol at 3× the EC80 for each muscarinic subtype. Alternatively, the compounds can be co-applied simultaneously with the agonist. In both assay modes, the fluorescence is recorded for 60 sec (excitation wavelength is […] and emission wavelength 540 nm) using the FLIPR 3 instrument.
(§5) The potency, efficacy and selectivity of the muscarinic compounds were evaluated by screening the compound activity across the whole family (M1 to M5 cells). Compounds were also screened for activity on other proteins such as other GPCRs and ion channels to determine selectivity on M4 receptors.
(§6) Examples of activities and efficacies of the muscarinic compounds of formulae (I, Ia, Ib, Ic, and Id) on modulating M1 and M4 receptors are shown below in Table 3. […]

[2] = biological target: T2, M2 muscarinic receptor (Homo sapiens, UniProt P08172); test: Functional mobilization of intracellular calcium (FLIPR), M2-CHO cells; conditions: for Emax: 100% efficacy is the maximum response obtained with the Carbachol control; for M2 Activity: CHO cells expressing M2, calcium mobilization
T2 construct: expressed in transfected cells; host or cells: CHO (M2-CHO)
T2 sequence (P08172 1-466): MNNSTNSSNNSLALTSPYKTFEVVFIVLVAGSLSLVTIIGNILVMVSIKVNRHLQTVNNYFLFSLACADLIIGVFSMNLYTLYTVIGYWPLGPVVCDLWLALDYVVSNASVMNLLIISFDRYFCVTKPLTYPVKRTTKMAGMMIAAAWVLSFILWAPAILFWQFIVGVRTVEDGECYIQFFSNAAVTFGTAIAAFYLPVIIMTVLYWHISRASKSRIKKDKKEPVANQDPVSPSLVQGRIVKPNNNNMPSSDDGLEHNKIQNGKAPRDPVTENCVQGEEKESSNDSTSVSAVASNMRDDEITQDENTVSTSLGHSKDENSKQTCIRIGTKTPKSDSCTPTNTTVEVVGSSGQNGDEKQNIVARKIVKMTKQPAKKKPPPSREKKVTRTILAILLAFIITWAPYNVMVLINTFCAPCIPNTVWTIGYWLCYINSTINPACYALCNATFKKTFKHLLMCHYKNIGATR
Description: as §1, §2, §3, §4, §5, §6

[3] = biological target: T3, M3 muscarinic receptor (Homo sapiens, UniProt P20309); test: Functional mobilization of intracellular calcium (FLIPR), M3-CHO cells; conditions: for Emax: 100% efficacy is the maximum response obtained with the Carbachol control; for M3 Activity: CHO cells expressing M3, calcium mobilization
T3 construct: expressed in transfected cells; host or cells: CHO (M3-CHO)
Description: as §1, §2, §3, §4, §5, §6

[4] = biological target: T4, M4 muscarinic receptor (Homo sapiens, UniProt P08173); test: Functional mobilization of intracellular calcium (FLIPR), M4-CHO cells; conditions: for Emax: 100% efficacy is the maximum response obtained with the Carbachol control; for M4 Activity: CHO cells expressing M4, calcium mobilization
T4 construct: expressed in transfected cells; host or cells: CHO (M4-CHO)
T4 sequence (P08173 1-479): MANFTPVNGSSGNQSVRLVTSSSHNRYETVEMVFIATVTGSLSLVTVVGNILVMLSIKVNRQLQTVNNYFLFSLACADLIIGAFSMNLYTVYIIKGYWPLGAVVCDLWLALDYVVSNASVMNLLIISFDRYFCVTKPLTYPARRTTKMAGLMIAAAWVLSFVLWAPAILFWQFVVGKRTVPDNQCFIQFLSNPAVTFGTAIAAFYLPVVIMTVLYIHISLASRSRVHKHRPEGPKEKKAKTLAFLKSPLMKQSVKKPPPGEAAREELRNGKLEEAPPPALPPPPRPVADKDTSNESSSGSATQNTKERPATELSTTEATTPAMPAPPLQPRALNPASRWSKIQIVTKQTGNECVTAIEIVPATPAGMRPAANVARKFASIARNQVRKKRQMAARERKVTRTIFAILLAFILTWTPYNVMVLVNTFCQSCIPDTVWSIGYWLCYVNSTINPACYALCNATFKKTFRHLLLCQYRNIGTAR
Description: as §1, §2, §3, §4, §5, §6

T3 sequence (P20309 whole entry): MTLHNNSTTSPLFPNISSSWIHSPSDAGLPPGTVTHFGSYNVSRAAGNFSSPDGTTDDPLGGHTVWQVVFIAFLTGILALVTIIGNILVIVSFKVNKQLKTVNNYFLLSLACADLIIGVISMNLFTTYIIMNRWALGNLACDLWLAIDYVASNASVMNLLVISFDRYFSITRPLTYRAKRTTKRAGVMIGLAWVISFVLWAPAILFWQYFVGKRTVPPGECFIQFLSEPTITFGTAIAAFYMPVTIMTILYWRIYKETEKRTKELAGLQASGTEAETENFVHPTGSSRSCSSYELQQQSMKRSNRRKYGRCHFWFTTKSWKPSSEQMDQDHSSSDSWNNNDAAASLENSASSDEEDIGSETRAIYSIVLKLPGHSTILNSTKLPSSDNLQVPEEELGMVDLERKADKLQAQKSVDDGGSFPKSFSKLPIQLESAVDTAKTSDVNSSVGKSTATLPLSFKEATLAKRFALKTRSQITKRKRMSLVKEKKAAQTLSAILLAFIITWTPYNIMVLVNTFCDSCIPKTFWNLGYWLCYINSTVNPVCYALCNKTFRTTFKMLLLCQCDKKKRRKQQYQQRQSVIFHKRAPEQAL

Structure (SMILES) | Emax [1] | M1 Activity [1] | Emax [2] | M2 Activity [2] | Emax [3] | M3 Activity [3] | Emax [4] | M4 Activity [4]
O=C1Nc2ccccc2C2(CCN(C3CC4CCC(C4)C3)CC2)O1 (centres unmarked) [Compound 67, 1′-(bicyclo[3.2.1]octan-3-yl)spiro[benzo[d][1,3]oxazine-4,4′-piperidin]-2(1H)-one] | 25 to 100% | +++ (activity was measured to be less than 2.0 μM) | 25 to 100% | +++ (activity was measured to be less than 2.0 μM) | 25 to 100% | + (activity was measured to be greater than 5.0 μM) | 25 to 100% | +++ (activity was measured to be less than 2.0 μM)
O=C1CCC(N2CCC3(CC2)OC(=O)Nc2ccccc23)CC1 [Compound 64, 1′-(4-oxocyclohexyl)spiro[benzo[d][1,3]oxazine-4,4′-piperidin]-2(1H)-one] | 25 to 100% | ++ (activity was measured to be from 2.0 μM to 5.0 μM) | 25 to 100% | + (activity was measured to be greater than 5.0 μM) | < 25% | + (activity was measured to be greater than 5.0 μM) | 25 to 100% | ++ (activity was measured to be from 2.0 μM to 5.0 μM)
CC(C)CCN1CCC2(CC1)OC(=O)Nc1ccccc12 [Compound 76, 1′-isopentylspiro[benzo[d][1,3]oxazine-4,4′-piperidin]-2(1H)-one] | 25 to 100% | +++ (activity was measured to be less than 2.0 μM) | 25 to 100% | + (activity was measured to be greater than 5.0 μM) | < 25% | + (activity was measured to be greater than 5.0 μM) | 25 to 100% | +++ (activity was measured to be less than 2.0 μM)
O=C1Nc2ccccc2C2(CCN(CC3CCCOC3)CC2)O1 (centres unmarked) [Compound 11] | 25 to 100% | +++ (activity was measured to be less than 2.0 μM) | 25 to 100% | + (activity was measured to be greater than 5.0 μM) | < 25% | + (activity was measured to be greater than 5.0 μM) | 25 to 100% | +++ (activity was measured to be less than 2.0 μM)
O=C1Nc2ccccc2C2(CCN(CC3CCCCC3)CC2)O1 [Compound 27] | 25 to 100% | +++ (activity was measured to be less than 2.0 μM) | 25 to 100% | ++ (activity was measured to be from 2.0 μM to 5.0 μM) | < 25% | + (activity was measured to be greater than 5.0 μM) | 25 to 100% | +++ (activity was measured to be less than 2.0 μM)
CN1C(=O)OC2(CCN(C3CCCCCC3)CC2)c2ccccc21 [Compound 65, 1′-cycloheptyl-1-methylspiro[benzo[d][1,3]oxazine-4,4′-piperidin]-2(1H)-one] | < 25% | + (activity was measured to be greater than 5.0 μM) | < 25% | + (activity was measured to be greater than 5.0 μM) | < 25% | + (activity was measured to be greater than 5.0 μM) | 25 to 100% | +++ (activity was measured to be less than 2.0 μM)
O=C1Nc2ccccc2C2(CCN(C3CCCCCC3)CC2)O1 [Compound 5, 1′-cycloheptylspiro[benzo[d][1,3]oxazine-4,4′-piperidin]-2(1H)-one] | 25 to 100% | +++ (activity was measured to be less than 2.0 μM) | 25 to 100% | + (activity was measured to be greater than 5.0 μM) | < 25% | + (activity was measured to be greater than 5.0 μM) | 25 to 100% | +++ (activity was measured to be less than 2.0 μM)
